Measured values from US20260364057A1, “AMIDE COMPOUND, AND COMPOSITION AND USE THEREOF” (SIMCERE ZAIMING PHARMACEUTICAL CO., LTD., priority 2022, published 2026).

Key:
[1] = tested on: OVCAR3 cells; assay: Inhibition of proliferation of OVCAR-3 cells (Cell-Titer Glo); format: cell-based; conditions: Homo sapiens, OVCAR-3, 72 h, 3 days, 1000 cells/well
Text: Test Example 2. Test on Inhibition of Proliferation of OVCAR-3 Cells by Compounds of Present Disclosure
Cell and material: The human ovarian cancer cell line OVCAR3 was purchased from ATCC (Cat. No. HTB-161™), RPMI 1640 medium (Gibco #A1049101), penicillin-streptomycin (Gibco #15140122), and 0.25% Trypsin-EDTA (Gibco #25200056) were purchased from Gibco (U.S.), bovine insulin (Yeasen #40107ES60) was purchased from Yeasen, 384-well plates (Corning #CLS3765) was purchased from Corning (U.S.), and Cell-Titer Glo reagent (Promega #G7568) was purchased from Promega (U.S.).
Cell culture: OVCAR3 cells were cultured in RPMI 1640 complete medium (RPMI 1640 medium containing 20% fetal bovine serum, […] bovine insulin, and 1% penicillin-streptomycin) in an incubator (37 °C, 5% CO2), and the cells could be used in experiments when in the logarithmic growth phase.
Cell proliferation activity test: The Cell-Titer Glo reagent was used to test the compound for inhibition of proliferation of the OVCAR3 cell strain. The compound formulated with DMSO and pure DMSO (control) were each added to a 384-well plate using an Echo instrument; the compound was subjected to 3-fold serial dilution starting from 30 μM to obtain 11 concentration points, and the volume of the compound or DMSO added was 100 nL.
OVCAR3 cells were digested and resuspended in RPMI 1640 complete medium, and the suspension was added to a 384-well plate (1000 cells/50 μL/well) to be well mixed with the compound. The mixture was incubated in an incubator (37 °C, 5% CO2) for 3 days. The Cell-Titer Glo reagent was added at 25 µL/well, and the resulting mixture was well mixed by shaking and then incubated for 10 min. The Cell-Titer Glo readings were measured with a Multimode Plate Reader (brand: PerkinElmer; model: SIC-PV-018).
A negative control group (Bottom) was set, and the negative control group was medium wells with 0.2% DMSO added and was defined as 100% proliferation inhibition; the positive control group (Top) was OVCAR3 cell wells with 0.2% DMSO added.
The percent proliferation inhibition (% Inhibition) was calculated, and the curves were fit using the four-parameter equation, Y=Bottom+(Top−Bottom)/(1+(IC50/X)^HillSlope), to obtain the proliferation inhibition IC50 of the compound. • Percent inhibition: % Inhibition=(1−(Signal−Bottom)/(Top−Bottom))×100%. • Signal: Cell-Titer Glo reading of wells with compound added; • Bottom: Cell-Titer Glo reading of negative control wells; • Top: Cell-Titer Glo reading of positive control wells.

[2] = molecular target: T1, Human KIF18A (1-376aa) (Homo sapiens, UniProt Q8NI77); assay: KIF18A enzyme activity assay (ADP-Glo); format: biochemical; conditions: microtubule 50 μg/mL, ATP (Km 70 μM), room temperature, 15 min, read-out: KIF18A inhibitory activity IC50
T1 construct: Human KIF18A (1-376aa) protease used in the experiments; purchased Shanghai Panchao Biotechnology Co., Ltd
T1 sequence (Q8NI77 1-376): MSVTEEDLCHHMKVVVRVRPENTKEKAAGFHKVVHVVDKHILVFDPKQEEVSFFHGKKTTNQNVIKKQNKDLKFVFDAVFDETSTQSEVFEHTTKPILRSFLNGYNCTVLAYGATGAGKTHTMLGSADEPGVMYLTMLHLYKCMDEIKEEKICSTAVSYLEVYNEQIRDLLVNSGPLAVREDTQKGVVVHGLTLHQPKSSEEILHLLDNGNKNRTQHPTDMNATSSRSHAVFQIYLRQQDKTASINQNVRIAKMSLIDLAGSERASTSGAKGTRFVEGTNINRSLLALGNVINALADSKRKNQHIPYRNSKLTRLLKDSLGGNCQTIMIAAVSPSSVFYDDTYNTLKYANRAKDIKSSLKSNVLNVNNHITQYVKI
Experimental: Test Example 1: KIF18A Enzyme Activity Assay
Based on the ADP-Glo™ Kinase Assay, the ADP amount generated in the reaction was detected to reflect the enzyme activity of KIF18A.
Human KIF18A (1-376aa) […] used in the experiments, expressed by Shanghai Panchao Biotechnology Co., Ltd., was stored at −80 °C (no more than 5 freeze-thaw cycles).
The assay kit (ADP-Glo™ Kinase Assay) was purchased from Promega (Cat. No. V9101) and stored at −30 °C. The kit detects the enzyme activity by measuring ADP generated in enzyme reaction. The KIF18A enzyme and ATP generate ADP. The remaining ATP in this reaction is consumed by the ADP-Glo reagent, while the ADP generated by the KIF18A enzyme reaction is converted back to ATP by the assay reagent. The ATP then reacts with luciferin in the presence of Ultra-Glo™ luciferase, producing luminescence. The luminescent signal is positively correlated with the activity of the KIF18A enzyme.
Compounds were each subjected to 3-fold serial dilution starting from 10 μM to obtain 10 concentration points. The compounds and pure DMSO (control) were pipetted into wells of a 384-well plate using an Echo instrument, and the total volume of compound and DMSO was 100 nL; sample concentrations of gradient dilution were obtained by the instrument based on different ratios. Preparation of a KIF18A enzyme reaction buffer: […], 10 mM MgCl2, 0.01% Pluronic F-68, 1 μM Taxol, and 50 μg/mL Microtubule. KIF18A and the enzyme reaction buffer were mixed, and then the mixed solution was added to the 384-well plate and incubated at room temperature for 15 min. ATP (Km 70 μM) was then added to the mixed solution, and the mixed solution was incubated at room temperature for 15 min. 10 μL of ADP-Glo™ Reagent was well mixed with 10 μL of the mixed solution, and the mixture was incubated at room temperature for 40 min. Finally, 20 μL of ADP-Glo™ Detection Reagent was added, and the mixture was incubated at room temperature for 30 min. The chemiluminescent signal in each well was measured using an Envision plate reader (PerkinElmer, emission wavelength: 400-700 nm). In the experiment, 1 column of wells with no compound and no enzyme (chemiluminescence value was taken as [RLU]background) and 1 column of wells with enzyme but no compound (chemiluminescence value was taken as [RLU]enzyme) were provided. The chemiluminescence value of the compound adding group was taken as [RLU]cpd. The inhibition rate of the compound on […] was calculated according to the following equation: inhibition rate (%)=([RLU]enzyme−[RLU]cpd)/([RLU]enzyme−[RLU]background)×100%, and the inhibitory activity IC50 value of the compound on the enzyme activity was calculated using a four-parameter Logistic Model method. In the following equation, x represents the logarithmic form of the concentration of compound, and f (x) represents an effect value (inhibition rate of enzyme activity at the concentration): F(x)=(A+((B−A)/(1+((C/x)^D)))). A. B, C, and D are four parameters.

Row | IC50 [1] | IC50 [2] | Compound
1 | 38 nM | < 200 nM | CCS(=O)(=O)Nc1ccc(C(=O)Nc2cc3c(c(N4CCC(F)(F)CC4)c2)CCC3)c(N2CCC3(CC2)CC3)c1 [Compound 73]
2 | 24 nM | < 200 nM | O=C(Nc1cccc2c1nc1n2CC2CCC1C2(F)F)c1ccc(NS(=O)(=O)CCO)cc1N1CCC2(CC1)CC2 (centres unmarked) [Compound 74]
3 | 43.1 nM | < 200 nM | O=C(Nc1cccc2c1nc1n2CC(C(F)(F)F)C1)c1ccc(NS(=O)(=O)CCO)cc1N1CCC2(CC1)CC2 (centres unmarked) [Compound 76]
4 | 25.4 nM | < 200 nM | O=C(Nc1cccc2c1nc1n2C2CCC1OC2)c1ccc(NS(=O)(=O)CCO)cc1N1CCC2(CC1)CC2 (centres unmarked) [Compound 77]
5 | 45.3 nM | < 200 nM | O=C(Nc1cccc2c3n(nc12)CCCCC3)c1ccc(NS(=O)(=O)CCO)cc1N1CCC2(CC1)CC2 [Compound 78]
6 | 24 nM | < 200 nM | O=C(Nc1cc(N2CCC(F)(F)CC2)c2nccn2c1)c1ccc(NS(=O)(=O)CCO)cc1N1CCC2(CC1)CC2 [Compound 80]
7 | 18.2 nM | < 200 nM | O=C(Nc1cc(N2CCC(F)(F)CC2)n2nccc2c1)c1ccc(NS(=O)(=O)CCO)cc1N1CCC2(CC1)CC2 [Compound 81]
8 | 99.3 nM | < 200 nM | CC1(C)Cc2cc(NC(=O)c3ccc(NS(=O)(=O)CCO)cc3N3CCC4(CC3)CC4)cc(N3CCC(F)(F)CC3)c2O1 [Compound 82]
9 | 86 nM | < 500 nM | O=C(Nc1cccc2c1nc1n2C2COC1C2)c1ccc(NS(=O)(=O)CCO)cc1N1CCC2(CC1)CC2 (centres unmarked) [Compound 83]
10 | 6.5 nM | < 200 nM | O=C(Nc1cccc2c1nc1n2CC2C1C2(F)F)c1ccc(NS(=O)(=O)CCO)cc1N1CCC2(CC1)CC2 (centres unmarked) [Compound 86]
11 | 31 nM | < 200 nM | CC1(C)Cn2c(nc3c(NC(=O)c4ccc(NS(=O)(=O)CCO)cc4N4CCC5(CC4)CC5)cccc32)CO1 [Compound 87]
12 | 98 nM | < 200 nM | O=C(Nc1cccc2c1nc1n2CC2CC1C2(F)F)c1ccc(NS(=O)(=O)CCO)cc1N1CCC2(CC1)CC2 (centres unmarked) [Compound 88]
13 | 48.4 nM | < 200 nM | N#Cc1ccc(NC(=O)c2ccc(NS(=O)(=O)CCO)cc2N2CCC3(CC2)CC3)c2nc3n(c12)CC1CC31 (centres unmarked) [Compound 92]
14 | 25 nM | < 200 nM | COc1ccc(NC(=O)c2ccc(NS(=O)(=O)CCO)cc2N2CCC3(CC2)CC3)c2nc3n(c12)CCCCC3 [Compound 96]
15 | 9.1 nM | < 200 nM | O=C(Nc1cc2c(c(N3CCC(F)(F)CC3)c1)COC2)c1ccc(NS(=O)(=O)CCO)cc1N1CCC2(CC1)CC2 [Compound 101]
16 | 14.7 nM | < 200 nM | O=C(Nc1cc2c(c(N3CCC(F)(F)CC3)c1)CC2)c1ccc(NS(=O)(=O)CCO)cc1N1CCC2(CC1)CC2 [Compound 103]
17 | 14.9 nM | < 200 nM | CS(=O)(=O)Nc1ccc(C(=O)Nc2cn3ccnc3c(N3CCC(F)(F)CC3)n2)c(N2CCC3(CC2)CC3)c1 [Compound 105]
18 | 15.7 nM | < 200 nM | O=C(Nc1cc2ccoc2c(N2CCC(F)(F)CC2)n1)c1ccc(NS(=O)(=O)CCO)cc1N1CCC2(CC1)CC2 [Compound 106]
19 | 99.3 nM | < 200 nM | O=C(Nc1cccc2c3c(nn12)C1CC1C3)c1ccc(NS(=O)(=O)CCO)cc1N1CCC2(CC1)CC2 (centres unmarked) [Compound 107]
20 | 37.4 nM | < 200 nM | O=C(Nc1cc2ccnn2c(N2CCC(F)(F)CC2)n1)c1ccc(NS(=O)(=O)CCO)cc1N1CCC2(CC1)CC2 [Compound 109]
21 | 11.2 nM | < 200 nM | N#Cc1ccc(NC(=O)c2ccc(NS(=O)(=O)CCO)cc2N2CCC3(CC2)CC3)c2nc3n(c12)CC1C3C1(F)F (centres unmarked) [Compound 110]
22 | 15.3 nM | < 200 nM | COC(=O)c1ccc(NC(=O)c2ccc(NS(=O)(=O)CCO)cc2N2CCC3(CC2)CC3)c2nc3n(c12)CCCCC3 [Compound 112]
23 | 5.32 nM | < 200 nM | CCNC(=O)c1ccc(NC(=O)c2ccc(NS(=O)(=O)CCO)cc2N2CCC3(CC2)CC3)c2nc3n(c12)CCCCC3 [Compound 113]
24 | 10.7 nM | < 200 nM | O=C(Nc1cc2c(c(N3CC4C(C3)C4(F)F)c1)OCC2)c1ccc(NS(=O)(=O)CCO)cc1N1CCC2(CC1)CC2 (centres unmarked) [Compound 114]
25 | 23 nM | < 200 nM | O=C(Nc1cccc2c1cc1n2CCCCC1)c1ccc(NS(=O)(=O)CCO)cc1N1CCC2(CC1)CC2 [Compound 115]
